US9005314B2, “Biphenyl benzyl ether marker compounds for liquid hydrocarbons and other fuels and oils” (Dow Global Technologies LLC, priority 2010, dated 2015)
Blank lines part the entries; values can stand above or below the compound they belong to.

How the values were obtained:
[1] = Laundering stability/extractability of marker in xylene solution, GC analysis versus un-laundered reference; assay type: physicochemical; conditions: 8 hours; for Marker: 95:5 marked xylenes:agent, relative to control = 100; for Change %: versus control
Experimental: (§1) The stability and extractability of a representative marker was performed using xylene solutions containing between 100-1000 ppm maker and an equivalent amount of squalene internal reference standard using the following protocols:
Mix 95 parts marked xylenes with 5 parts laundering agent in a 100 mL vial. Mix gently for 8 hours using a magnetic stir bar. Stop mixing and remove a xylene solution aliquot. Analyze by GC and compare marker response to reference (un-laundered) sample.
(§2) Laundering Agents: • 1) 5% sulfuric acid • 2) 98% sulfuric acid • 3) 5% NaOH solution • 4) 50% NaOH solution To test for metal adsorptivity, 100 mL marked xylene tests solution is treated with 5 grams metal shavings at room temperature for 8 hours. GC analysis is again used to determine any loss of marker to the metal surface.

[2] = Metal adsorptivity: marked xylene treated with metal shavings, GC analysis; assay type: physicochemical; conditions: 100 mL marked xylene, 5 grams metal shavings, room temperature, 8 hours
Experimental: as §1, §2

melting point: 209 °C
Structure (SMILES): Cc1ccccc1OCc1ccc(-c2ccc(COc3ccccc3C)cc2)cc1 [4,4′-bis(2-methylphenoxymethyl)-1,1′-biphenyl]

melting point: 206 °C
Structure (SMILES): Cc1ccc(OCc2ccc(-c3ccc(COc4ccc(C)cc4)cc3)cc2)cc1 [4,4′-bis(4-methylphenoxymethyl)-1,1′-biphenyl]

melting point: 176 °C
Marker ([1]; 5% H2SO4 laundering agent): 85.51
Change % ([1]; 5% H2SO4 laundering agent): −14.49%
Marker ([1]; 5% NaOH laundering agent): 100.01
Change % ([1]; 5% NaOH laundering agent): 0.01%
Marker ([1]; 50% NaOH laundering agent): 101.85
Change % ([1]; 50% NaOH laundering agent): 1.85%
Marker ([1]; 98% H2SO4 laundering agent): 0.00
Change % ([1]; 98% H2SO4 laundering agent): −100.00%
Change % [2]: +4%
Marker [2]: 104%
Structure (SMILES): c1ccc(OCc2ccc(-c3ccc(COc4ccccc4)cc3)cc2)cc1 [4,4′-bis(phenoxymethyl)-1,1′-biphenyl]

melting point: 218 °C
Structure (SMILES): CC(C)(C)c1ccc(OCc2ccc(-c3ccc(COc4ccc(C(C)(C)C)cc4)cc3)cc2)cc1 [Example 4, 4,4′-bis(4-t-butylphenoxymethyl)-1,1′-biphenyl]
